Columns and labels:
Assay in all cases: normalised response (% of control), CellTiter-Glo; higher = more viable cells (100 = DMSO, 0 = benzethonium chloride kill control)
Conditions in all cases: incubation time: 72 h
[1] = test system: CAL-85-1
In short: (§1)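 A 20 µl suspension of breast cancer cells was seeded into each well of 384-well plates containing compound at 5 concentrations in 10-fold steps over a compound-specific 10,000-fold range. After 72 h incubation, CellTox Green fluorescence (485/520 nm) was read first, and CellTiter-Glo luminescence was read after 10 min at room temperature. Each plate was normalised against 0.1 % DMSO (100) and a positive kill control (0), and each value is the normalised signal at one concentration.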

[2] = test system: HCC1937
In short: as §1

[3] = test system: HCC1599
In short: as §1

[4] = test system: CAL-51
In short: as §1

[5] = test system: MDA-MB-436
In short: as §1

[6] = test system: MFM-223
In short: as §1

[7] = test system: BT-549
In short: as §1

[8] = test system: CAL-148
In short: as §1

[9] = test system: CAL-120
In short: as §1

[10] = test system: SK-BR-3
In short: as §1

[11] = test system: Hs578T
In short: as §1

[12] = test system: MCF-10A
In short: as §1

[13] = test system: BT-474
In short: as §1

[14] = test system: MDA-MB-231
In short: as §1

[15] = test system: HDQ-P1
In short: as §1

[16] = test system: DU-4475
In short: as §1

[17] = test system: HCC1143
In short: as §1

[18] = test system: MDA-MB-453
In short: as §1

[19] = test system: MDA-MB-468
In short: as §1

Row | Structure (SMILES) | normalised response [1] | normalised response [2] | normalised response [3] | normalised response [4] | normalised response [5] | normalised response [6] | normalised response [7] | normalised response [8] | normalised response [9] | normalised response [10] | normalised response [11] | normalised response [12] | normalised response [13] | normalised response [14] | normalised response [15] | normalised response [16] | normalised response [17] | normalised response [18] | normalised response [19]
1 | CN(Cc1cnc2nc(N)nc(N)c2n1)c1ccc(C(=O)N[C@@H](CCC(=O)O)C(=O)O)cc1 [Methotrexate] (5 nM) | 101% | 107% | 88.1% | 103% | 97.6% | 108% | 117% | 105% | 99.5% | 118% | 109% | 107% | 100% | 109% | 102% | 105% | 107% | 116% | 108%
2 | Cc1nc(C(=O)NCC(=O)O)c(O)c2ccc(Oc3ccccc3)cc12 [FG-4592] (10 nM) | 101% | 105% | 104% | 90.5% | 95% | 107% | 99.1% | 117% | 100% | 109% | 103% | 111% | 104% | 101% | 103% | 101% | 105% | 109% | 97.3%
3 | C=CCn1c(=O)c2cnc(Nc3ccc(N4CCN(C)CC4)cc3)nc2n1-c1cccc(C(C)(C)O)n1 [MK1775] (10 nM) | 93.2% | 94.5% | 107% | 121% | 88.6% | 88.8% | 98.9% | 79.3% | 93.1% | 76.1% | 101% | 83% | 87.5% | 90.5% | 94.4% | 93.2% | 92.4% | 81% | 90.4%
4 | CC(C)(C)NC(=O)[C@H]1CC[C@H]2[C@@H]3CC[C@H]4NC(=O)C=C[C@]4(C)[C@H]3CC[C@]12C [Finasteride] (10 nM) | 98.7% | 103% | 114% | 80.6% | 95.9% | 97.8% | 96.4% | 101% | 99.5% | 121% | 101% | 104% | 98.3% | 104% | 97.3% | 102% | 108% | 113% | 106%
5 | CC1(COc2ccc3c(c2)ncn3-c2ccc3cccc(N4CCC(N)CC4)c3n2)COC1 [Crenolanib] (1 nM) | 96.6% | 103% | 105% | 123% | 97.9% | 99.5% | 110% | 102% | 98.5% | 106% | 103% | 116% | 102% | 98.7% | 102% | 108% | 98.5% | 90.9% | 102%
6 | CC(O)(CS(=O)(=O)c1ccc(F)cc1)C(=O)Nc1ccc(C#N)c(C(F)(F)F)c1 (stereo not given) [Bicalutamide] (10 nM) | 106% | 98.6% | 106% | 105% | 111% | 111% | 99.5% | 113% | 100% | 130% | 99% | 109% | 107% | 105% | 105% | 104% | 105% | 100% | 102%
7 | Cc1cc(Nc2nc(N[C@@H](C)c3ncc(F)cn3)ncc2Cl)[nH]n1 [AZD1480] (1 nM) | 98.4% | 96.4% | 102% | 113% | 101% | 95.1% | 92.5% | 89.7% | 98% | 118% | 99.7% | 97.1% | 102% | 99.7% | 96.6% | 102% | 95.7% | 103% | 98.1%
8 | CCN(CC)CCCC(C)Nc1ccnc2cc(Cl)ccc12 (stereo not given) [Chloroquine] (10 nM) | 99.8% | 95.3% | 90.9% | 126% | 113% | 96.7% | 107% | 89.2% | 103% | 92.5% | 104% | 101% | 96.5% | 101% | 99% | 92.2% | 104% | 103% | 95.2%
9 | CCNC(=O)c1noc(-c2cc(C(C)C)c(O)cc2O)c1-c1ccc(CN2CCOCC2)cc1 [NVP-AUY922] (1 nM) | 105% | 102% | 108% | 106% | 104% | 104% | 97.2% | 104% | 106% | 106% | 101% | 106% | 114% | 103% | 104% | 105% | 104% | 113% | 107%
10 | CN(Cc1cnc2nc(N)nc(N)c2n1)c1ccc(C(=O)N[C@@H](CCC(=O)O)C(=O)O)cc1 [Methotrexate] (50 nM) | 76.7% | 33% | 51.9% | 63.7% | 86.1% | 108% | 100% | 109% | 32.5% | 74.7% | 47.6% | 111% | 101% | 100% | 35.5% | 88.4% | 84.5% | 114% | 92.8%

From the supplement of paper PMC4862054
